Assay results taken from ChEMBL document CHEMBL4811222, “Antitumor Activity of Asperphenin B by Induction of Apoptosis and Regulation of Glyceraldehyde-3-phosphate Dehydrogenase in Human Colorectal Cancer Cells” (J Nat Prod, 2021).
pIC50: −log10 of the molar value. Active and inactive are the calls of the source. No cut-off for these calls is given here.

What was measured:
RKO [1] = assay: Antitumor activity against human RKO cells implanted in ip dosed BALB/c nude mouse assessed as suppression of GAPDH expression in tumor lysates administered three times per week for 21 days by Western blotting analysis; format: functional, organism-based; settings: Neoplasm, time 21.0 day
RKO [2] = assay: Induction of cell cycle arrest in human RKO cells assessed as accumulation at G0/G1 phase at 2.5 uM after 48 hrs by RNase A/propidium iodide staining based flow cytometric analysis (reference value: 60.58 %); format: functional
RKO [3] = assay: Induction of apoptosis in human RKO cells assessed as increase in cleaved PARP expression at 2.5 uM measured upto 48 hrs by Western blotting analysis; format: functional, cell-based; settings: time hrs <=48
RKO [4] = assay: Induction of apoptosis in human RKO cells assessed as modulation of survivin expression level after 48 hrs by Western blotting analysis; format: functional, cell-based; settings: dose 2.5-10 µM
RKO [5] = assay: Induction of E-cadherin expression in human RKO cells after 24 hrs by Western blotting analysis; format: functional, cell-based
RKO [6] = assay: Induction of apoptosis in human RKO cells assessed as modulation of p53 expression level after 48 hrs by Western blotting analysis; format: functional, cell-based; settings: dose 2.5-10 µM
RKO [7] = assay: Induction of cell cycle arrest in human RKO cells assessed as accumulation at G0/G1 phase at 2.5 uM after 12 hrs by RNase A/propidium iodide staining based flow cytometric analysis (reference value: 60.58 %); format: functional
RKO [8] = assay: Induction of cell cycle arrest in human RKO cells assessed as accumulation at G0/G1 phase at 2.5 uM after 36 hrs by RNase A/propidium iodide staining based flow cytometric analysis (reference value: 60.58 %); format: functional
RKO [9] = assay: Induction of cell cycle arrest in human RKO cells assessed as upregulation of cyclin B1 expression measured after 24 hrs by Western blot analysis; format: functional, cell-based; settings: dose 1.25-5 µM
RKO [10] = assay: Induction of apoptosis in human RKO cells assessed as modulation of cleaved PARP expression level after 48 hrs by Western blotting analysis; format: functional, cell-based; settings: dose 2.5-10 µM
RKO [11] = assay: Induction of cell cycle arrest in human RKO cells assessed as accumulation at G2/M phase at 2.5 uM after 24 hrs by RNase A/propidium iodide staining based flow cytometric analysis (reference value: 24.38 %); format: functional
[12] = molecular target: Glyceraldehyde-3-phosphate dehydrogenase (Homo sapiens) (UniProt P04406); assay: Inhibition of GAPDH activity (unknown origin) after 1 hr; settings: dose 0.01-10 µM
RKO [13] = assay: Induction of cell cycle arrest in human RKO cells assessed as accumulation at sub-G1 phase at 2.5 uM after 24 hrs by RNase A/propidium iodide staining based flow cytometric analysis (reference value: 0.89 %); format: functional
SW480 = assay: Antiproliferative activity against human SW480 cells assessed as inhibition of cell growth incubated for 72 hrs by SRB assay; format: functional, cell-based; settings: SW480, 72 h
RKO [14] = assay: Induction of cell cycle arrest in human RKO cells assessed as accumulation at sub-G1 phase at 2.5 uM after 12 hrs by RNase A/propidium iodide staining based flow cytometric analysis (reference value: 0.89 %); format: functional
RKO [15] = assay: Induction of cell cycle arrest in human RKO cells assessed as upregulation of p-Cdc2 at Y15 residue expression measured after 24 hrs by Western blot analysis; format: functional, cell-based; settings: dose 1.25-5 µM
RKO [16] = assay: Induction of apoptosis in human RKO cells assessed as modulation of cleaved caspase 3 expression level after 48 hrs by Western blotting analysis; format: functional, cell-based; settings: dose 2.5-10 µM
CCD-18Co = assay: Antiproliferative activity against human CCD-18Co cells assessed as inhibition of cell growth incubated for 72 hrs by SRB assay; format: cell-based
RKO [17] = assay: Induction of apoptosis in human RKO cells assessed as modulation of cleaved caspase 9 expression level after 48 hrs by Western blotting analysis; format: functional, cell-based; settings: dose 2.5-10 µM
RKO [18] = assay: Induction of apoptosis in human RKO cells assessed as increase in cleaved caspase 9 expression at 2.5 uM measured upto 48 hrs by Western blotting analysis; format: functional, cell-based; settings: time hrs <=48
HCT-116 [19] = assay: Antimigratory activity against human HCT116 cells implanted in nude mouse assessed as inhibition of liver cells migration after 24 hrs by wound healing assay; format: functional, cell-based; settings: dose 3-6 µM
RKO [20] = assay: Induction of apoptosis in human RKO cells assessed as total apoptotic cells at 2.5 uM after 48 hrs by Annexin V/PI staining based flow cytometric analysis; format: functional
RKO [21] = assay: Induction of cell cycle arrest in human RKO cells assessed as upregulation of phospho-Chk2 expression at 1.25 to 5 uM measured after 24 hrs by Western blot analysis; format: functional, cell-based; settings: dose 1.25-5 µM
RKO [22] = assay: Induction of cell cycle arrest in human RKO cells assessed as accumulation at sub-G1 phase at 2.5 uM after 24 hrs by RNase A/propidium iodide staining based flow cytometric analysis (reference value: 0.40 %); format: functional
HCT-116 [23] = assay: Downregulation of Snail expression in […] at 3 to 6 uM after 24 hrs by Western blotting analysis; format: functional, cell-based; settings: dose 3-6 µM
RKO [24] = assay: Induction of cell cycle arrest in human RKO cells assessed as accumulation at G0/G1 phase at 5 uM after 24 hrs by RNase A/propidium iodide staining based flow cytometric analysis (reference value: 51.49 %); format: functional
RKO [25] = assay: Induction of cell cycle arrest in human RKO cells assessed as accumulation at G0/G1 phase at 1.25 uM after 24 hrs by RNase A/propidium iodide staining based flow cytometric analysis (reference value: 51.49 %); format: functional
HCT-116 [26] = assay: Suppression of GAPDH expression in […] at 3 to 6 uM after 24 hrs by Western blotting analysis; format: functional, cell-based; settings: dose 3-6 µM
RKO [27] = assay: Induction of cell cycle arrest in human RKO cells assessed as accumulation at G2/M phase at 5 uM after 24 hrs by RNase A/propidium iodide staining based flow cytometric analysis (reference value: 24.38 %); format: functional
RKO [28] = assay: Induction of cell cycle arrest in human RKO cells assessed as accumulation at S phase at 1.25 uM after 24 hrs by RNase A/propidium iodide staining based flow cytometric analysis (reference value: 24.20 %); format: functional
RKO [29] = assay: Suppression of GAPDH protein expression in human RKO cells after 24 hrs by Western blotting analysis; format: functional, cell-based; settings: dose 2.5-10 µM
RKO [30] = assay: Induction of cell cycle arrest in human RKO cells assessed as accumulation at G2/M phase at 2.5 uM after 48 hrs by RNase A/propidium iodide staining based flow cytometric analysis (reference value: 24.63 %); format: functional
RKO [31] = assay: Induction of cell cycle arrest in human RKO cells assessed as accumulation at G2/M phase at 2.5 uM after 12 hrs by RNase A/propidium iodide staining based flow cytometric analysis (reference value: 24.63 %); format: functional
RKO [32] = assay: Induction of cell cycle arrest in human RKO cells assessed as accumulation at S phase at 2.5 uM after 36 hrs by RNase A/propidium iodide staining based flow cytometric analysis (reference value: 13.33 %); format: functional
HCT-116 [33] = assay: Downregulation of N-Cadherin expression in […] at 3 to 6 uM after 24 hrs by Western blotting analysis; format: functional, cell-based; settings: dose 3-6 µM
[34] = Toxicity in BALB/c nude mouse implanted with human RKO cells assessed as change in body weight at 4 to 8 mg/kg, ip administered three times per week for 21 days; format: organism-based; settings: in vivo, 504 h, dose 4-8 mg/kg, time 21 day

Sequence of Glyceraldehyde-3-phosphate dehydrogenase (Homo sapiens) (P04406 2-335 limits assumed): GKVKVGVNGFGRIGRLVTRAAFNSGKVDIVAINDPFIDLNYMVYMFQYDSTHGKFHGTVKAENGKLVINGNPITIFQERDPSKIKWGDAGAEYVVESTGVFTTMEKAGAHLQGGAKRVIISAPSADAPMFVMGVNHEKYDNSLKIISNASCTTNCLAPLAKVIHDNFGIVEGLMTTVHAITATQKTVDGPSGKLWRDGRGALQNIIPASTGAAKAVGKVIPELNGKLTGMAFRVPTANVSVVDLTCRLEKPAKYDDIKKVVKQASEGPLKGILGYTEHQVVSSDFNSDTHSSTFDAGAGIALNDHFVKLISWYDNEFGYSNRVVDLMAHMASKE

CCCCCCCCC[C@@H](O)CC(=O)N[C@@H](CC(N)=O)C(=O)N[C@@H](CCC(N)=O)C(=O)N[C@H](CC(=O)c1cc(C)cc(O)c1C(=O)c1c(O)cccc1O)CC(C)C
Activity (RKO [1]): Dose-Dependent Effect
Activity (RKO [2]): 30.27%
Activity (RKO [3]): Active
Activity (RKO [4]): Dose-Dependent Effect
Activity (RKO [5]): Active
Activity (RKO [6]): Dose-Dependent Effect
Activity (RKO [7]): 54.66%
Activity (RKO [8]): 22.38%
Activity (RKO [9]): Dose-Dependent Effect
Activity (RKO [10]): Dose-Dependent Effect
Activity (RKO [11]): 44.01%
inhibition [12]: Dose-Dependent Effect
Activity (RKO [13]): 1.22%
pIC50 (SW480): 5.63
Activity (RKO [14]): 0.88%
Activity (RKO [15]): Dose-Dependent Effect
Activity (RKO [16]): Dose-Dependent Effect
pIC50 (CCD-18Co): 4.41
Activity (RKO [17]): Dose-Dependent Effect
Activity (RKO [18]): Active
inhibition (HCT-116 [19]): Dose-Dependent Effect
Activity (RKO [20]): 15.14%
Activity (RKO [21]): Active
Activity (RKO [22]): 0.56%
Activity (HCT-116 [23]): Active
Activity (RKO [24]): 25.55%
Activity (RKO [25]): 46.96%
Activity (HCT-116 [26]): Active
Activity (RKO [27]): 51.77%
Activity (RKO [28]): 23.61%
Activity (RKO [29]): Dose-Dependent Effect
Activity (RKO [30]): 41.66%
Activity (RKO [31]): 27.91%
Activity (RKO [32]): 10.45%
Activity (HCT-116 [33]): Active
Activity [34]: Non-Toxic
